We go through nine compounds from patent publication US8993631B2, “Method of treating contrast-induced nephropathy” (Novartis AG, priority 2010, dated 2015).

Structures can show the parent of a compound that is named as a salt. Where no end group is shown, it is not given here.

In assay [1] the test system is adult male cannulated Sprague-Dawley rats. The experiment in a line: Renal function assessment in rats: GFR by FITC-inulin clearance method. To be noted: relative to vehicle-treated rats.
Method: A fluorescein isothiocyanate (FITC)-inulin stock solution was prepared by weighing the FITC-inulin powder, adding it to saline (50 mg/ml), and heating it in boiling water until dissolved. The solution was filtered and dialyzed overnight to remove unbound FITC. The next day, the dialysate was again filtered to sterilize it.
Approximately 1-2 weeks before the study, femoral arterial and venous catheters were implanted in the rats under isoflurane anesthesia. The catheters were exteriorized through a spring tether/swivel system and the instrumented rats were housed in specialized cages.
On the experimental day, rats were administered a NEP inhibitor or its vehicle by oral gavage. Thirty min later, FITC-inulin (10 mg/kg i.v. bolus) was administered via the venous catheter. Blood samples were withdrawn from the arterial catheter at 3, 7, 10, 15, 30, 60, 90, and 120 min after the FITC-inulin injection for plasma FITC-inulin and compound concentrations.
Arterial pressure was continuously monitored throughout the experiment.
The stock solution of FITC-inulin was serially diluted to generate a standard curve. The dosing solution was also diluted and analyzed to determine the exact amount of FITC-inulin injected. […] Concentrations of FITC-inulin in the plasma and dosing solution were determined by linear regression from the standard curve. FITC-inulin AUC(O-infinity) was derived by WinNonlin for each rat's plasma concentration-time curves. GFR (FITC-inulin clearance) was calculated for each animal as the injected dose divided by the AUC.
Assay [2] deals with recombinant human neutral endopeptidase (NEP, EC 3.4.24.11) (Homo sapiens (Human), UniProt P08473). Nature of the assay: In vitro inhibition of recombinant human neutral endopeptidase (fluorescence lifetime assay). It is filed as biochemical. To be noted: 1 hour pre-incubation, effect determined after 1 hour at room temperature, pH 7.4. The text has this: The activity of a compound for use in the method according to the present invention can be assessed by the following in vitro & in vivo methods and/or by the following in vitro & in vivo methods well-described in the art. See A fluorescence lifetime-based assay for protease inhibitor profiling on human kallikrein 7 Doering K, Meder G, Hinnenberger M, Woelcke J, Mayr L M, Hassiepen U Biomol Screen.
recombinant human neutral endopeptidase (NEP, EC 3.4.24.11), sequence (P08473 whole entry): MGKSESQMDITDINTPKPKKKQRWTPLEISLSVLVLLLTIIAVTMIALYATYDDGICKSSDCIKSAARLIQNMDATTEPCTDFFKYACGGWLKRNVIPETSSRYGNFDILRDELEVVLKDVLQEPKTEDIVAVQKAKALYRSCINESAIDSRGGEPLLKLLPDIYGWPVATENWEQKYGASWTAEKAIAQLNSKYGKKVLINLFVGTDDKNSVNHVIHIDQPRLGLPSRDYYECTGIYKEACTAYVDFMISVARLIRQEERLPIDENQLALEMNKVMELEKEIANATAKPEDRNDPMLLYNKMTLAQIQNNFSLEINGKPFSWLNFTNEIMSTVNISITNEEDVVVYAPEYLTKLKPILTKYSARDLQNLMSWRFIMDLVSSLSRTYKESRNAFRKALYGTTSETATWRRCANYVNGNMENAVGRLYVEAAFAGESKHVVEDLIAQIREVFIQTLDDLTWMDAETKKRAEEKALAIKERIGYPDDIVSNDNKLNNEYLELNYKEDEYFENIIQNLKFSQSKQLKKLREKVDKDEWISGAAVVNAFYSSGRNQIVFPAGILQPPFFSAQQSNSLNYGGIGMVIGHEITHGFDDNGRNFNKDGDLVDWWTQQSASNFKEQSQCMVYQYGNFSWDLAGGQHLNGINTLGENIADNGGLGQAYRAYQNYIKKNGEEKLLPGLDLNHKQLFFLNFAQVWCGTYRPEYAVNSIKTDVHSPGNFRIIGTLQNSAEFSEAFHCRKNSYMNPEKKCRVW
In particular, the in vitro inhibition of recombinant human neutral endopeptidase (NEP, EC 3.4.24.11) can be determined as follows: […]

The subject of assay [3] is patients with chronic renal insufficiency undergoing cardiac catheterization. To be noted: 48 hour infusion at 0.042 μg/kg/min, at-risk patients undergoing cardiac catheterization; cited from earlier work.

By IC50 is commonly meant the concentration that gives 50% inhibition.

On to `CCOC(=O)C[C@@H](Cc1ccc(-c2cccc(Cl)c2)cc1)NC(=O)CCC(=O)O` [Example 1-2, (R)-4-(1-(3′-chlorobiphenyl-4-yl)-4-ethoxy-4-oxobutan-2-ylamino)-4-oxobutanoic acid], for which the “% GFR increase” value in assay [1] (dose 0.1 mg/kg p.o.) is given as 23%.
Consider `CCOC(=O)C[C@@H](Cc1ccc(-c2ccccc2)cc1)NC(=O)CN1CCC[C@H]1C(=O)OCc1ccccc1` [Example 3-11, (S)-benzyl 1-(2-((R)-1-(biphenyl-4-yl)-4-ethoxy-4-oxobutan-2-ylamino)-2-oxoethyl)pyrrolidine-2-carboxylate trifluoroacetic acid salt], for which, in assay [2], the IC50 came to 18 nM.
As to `CCCCOC(=O)CCC(=O)N[C@@H](CC(=O)O)Cc1ccc(-c2cccc(Cl)c2)cc1` [Example 3-12, (R)-3-(4-butoxy-4-oxobutanamido)-4-(3′-chlorobiphenyl-4-yl)butanoic acid], the half-inhibitory concentration (IC50) in assay [2] was found to be 15 nM. In addition, the “% GFR increase” value in assay [1] (dose 1 mg/kg p.o.) was 32%.
`CCc1ncc(C(=O)N[C@@H](CC(=O)O)Cc2ccc(-c3cc(Cl)ccc3F)cc2)o1` [Example 9-7]: the “% GFR increase” value in assay [1] (dose 1 mg/kg p.o.) is 35%.
`CCOC(=O)[C@H](C)N[C@@H](Cc1ccc(-c2cccc(Cl)c2)cc1)C(=O)Nc1nnn[nH]1` [Example 31, (S)-2-[(S)-2-(3′-chloro-biphenyl-4-yl)-1-(1H-tetrazol-5-ylcarbamoyl)-ethylamino]-propionic acid ethyl ester]: the “% GFR increase” value in assay [1] (dose 0.1 mg/kg p.o.) was 27%.
Turning to `C[C@H](N[C@@H](Cc1ccc(-c2cccc(Cl)c2)cc1)C(=O)Nc1cc(O)no1)C(=O)O` [Example 32-4, (S)-2-[(S)-2-(3′-Chloro-biphenyl-4-yl)-1-(3-hydroxy-isoxazol-5-ylcarbamoyl)-ethylamino]-propionic acid], in assay [2], the IC50 worked out at 2.4 nM.
In the case of `CCOC(=O)[C@H](C)C[C@@H](Cc1ccc(-c2ccccc2)cc1)NC(=O)CCC(=O)O` [Example 34, (2R,4S)-5-Biphenyl-4-yl-4-(3-carboxy-propionylamino)-2-methyl-pentanoic acid ethyl ester], in assay [1] (dose 100 mg/kg p.o.), the “% GFR increase” value is 37%.
In the case of `CCOC(=O)[C@H](C)C[C@@H](Cc1ccc(-c2cccc(Cl)c2)cc1)NC(=O)CCC(=O)O` [Example 35, (2R,4S)-4-(3-carboxy-propionylamino)-5-(3′-chloro-biphenyl-4-yl)-2-methyl-pentanoic acid ethyl ester], the “% GFR increase” value in assay [1] (dose 1 mg/kg p.o.) worked out at 22%.
Turning to “Human Endogenous atrial natriuretic peptides (SLRRSSCFGGRMDRIGAQSGLGCNSFRY; ends and bridges not checked; cysteine pairing not given here; UniProt P01160 124-151, looked up) [Human ANP, "Human Endogenous atrial natriuretic peptides (ANP) infusions have been available in Japan for use in acute decompensated heart failure"; infused at 0.042 μg/kg/min]”, the “reduction of the incidence of contrast-induced nephropathy” value in assay [3] is 70%.
